The source of these data is patent US11207312B2, “Metallo-beta-lactamase inhibitors and methods of use thereof” (priority 2017, dated 2021).

One data set concerns the target NDM-1 (Klebsiella pneumoniae, UniProt C7C422). Kind of data set: biochemical. The format is biochemical. The conditions noted are these: CCF2-FA fluorescence assay, 2 hours at 25° C. The method in brief:
(§1)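 IC50s come from 4-parameter fits of inhibition versus inhibitor concentration, tested from 20 μM down to 0.00063 μM. Enzyme, CCF2-FA (1.25 μM) and inhibitor react 2 h at 25° C, pH 7, with 10 μM ZnSO4 and 0.005% Tween-20.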

The target in a further data set is IMP-1 (Serratia marcescens, UniProt P52699). Briefly: biochemical. Conditions: CCF2-FA fluorescence assay, 2 hours at 25° C.; read-out: IMP1 IC50. The method in brief: as §1
IMP-1, sequence (P52699 whole entry, looked up, species assumed): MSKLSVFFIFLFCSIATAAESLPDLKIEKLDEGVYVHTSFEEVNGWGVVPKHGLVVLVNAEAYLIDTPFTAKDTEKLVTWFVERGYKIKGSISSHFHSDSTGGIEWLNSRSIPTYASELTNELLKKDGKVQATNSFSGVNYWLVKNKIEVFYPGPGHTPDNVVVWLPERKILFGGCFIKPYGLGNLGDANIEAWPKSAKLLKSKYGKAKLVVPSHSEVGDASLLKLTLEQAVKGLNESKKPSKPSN
A further data set addresses VIM-1 (Pseudomonas aeruginosa (strain ATCC 15692 / DSM 22644 / CIP 104116 / JCM 14847 / LMG 12228 / 1C / PRS 101 / PAO1), UniProt A0A0F7KYQ8). Kind of data set: biochemical. Conditions: CCF2-FA fluorescence assay, 2 hours at 25° C.; read-out: VIM1 IC50. The method in brief:
as §1

Another data set concerns the target VIM-2 (Escherichia coli, UniProt Q5U7L7). Kind of data set: biochemical. Conditions: CCF2-FA fluorescence assay; read-out: VIM2 IC50.
The test system of data set [1] is Escherichia coli expressing NDM-1 (CLB30016). The format is cell-based. The conditions noted are these: with imipenem 1 μg/ml; 95% inhibition of bacterial growth. In short, it runs like this:
(§2)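 Clinical MBL-producing strains were grown overnight at 35 °C on blood agar, suspended in saline, diluted 1:100 into 1.1× CAMHB and exposed to test compound with imipenem at 1 μg/ml. After 22–24 h at 35 °C, absorbance gave MITC95: lowest compound concentration inhibiting 95% of growth.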

The test system of data set [2] is Klebsiella pneumoniae expressing VIM-1 (IHMA599644). The format is cell-based. Conditions: with imipenem 1 μg/ml; 95% inhibition of bacterial growth. The method in brief: as §2
For data set [3], the system named is Serratia marcescens expressing IMP-1 (CL5741). Type of data set: cell-based. The conditions noted are these: with imipenem 1 μg/ml; 95% inhibition of bacterial growth. The method in brief: as §2
The subject of data set [4] is P. aeruginosa MB9798 (efflux+, IMP-1 plasmid). The conditions noted are these: for MB9798 MITC95 P. aeruginosa uM Efflux WT: efflux + (MB9798) strain, imipenem at 2 μg/mL, in the presence of a class A, C, D serine β-lactamase inhibitor closely related to relebactam; for Efflux ratio: fold difference between efflux+ (MB9798) and efflux− (MB9799) strains. In short, it runs like this:
(§3)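 Isogenic P. aeruginosa PAO1 strains (efflux+ and multiple-efflux-pump-disrupted) carrying plasmid IMP-1, with inducible AmpC, tested by broth microdilution. Imipenem and/or ceftazidime fixed, usually at CLSI breakpoint, plus fixed class A/C β-lactamase inhibitor; titrated MBL inhibitor concentration restoring susceptibility recorded and compared between strains as efflux fold difference.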

Data set [5] deals with P. aeruginosa MB9799 (efflux-, IMP-1 plasmid). The format is cell-based, Pseudomonas aeruginosa. The conditions noted are these: efflux − (MB9799) strain; imipenem at 2 μg/mL; in the presence of a class A, C, D serine β-lactamase inhibitor closely related to relebactam. The method in brief: as §3

NDM-1, sequence (C7C422 whole entry, looked up, species assumed): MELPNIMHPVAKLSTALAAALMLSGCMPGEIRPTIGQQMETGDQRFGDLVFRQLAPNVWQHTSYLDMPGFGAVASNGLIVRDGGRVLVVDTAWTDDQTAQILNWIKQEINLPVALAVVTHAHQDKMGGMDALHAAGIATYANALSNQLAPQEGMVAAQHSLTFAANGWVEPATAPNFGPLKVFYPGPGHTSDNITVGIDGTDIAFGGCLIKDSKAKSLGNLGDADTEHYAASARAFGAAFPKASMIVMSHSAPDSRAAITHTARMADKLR

As to `NC[C@@H](O)CNS(=O)(=O)c1ccc(N2CCC(F)(CN)CC2)c(-c2nn[nH]n2)c1S(N)(=O)=O` [Example 3], the IC50 (as a rule, the concentration needed to halve the response being measured) on NDM-1 is 2.43 nM; on IMP-1, 3.95 nM; on VIM-1 it was 0.61 nM; on VIM-2 it was 3.68 nM. Also, the “CLB30016 E. coli MITC95 NDM” value in data set [1] was 0.78 µM. Moreover, the “IHMA599644 K. pneumoniae MITC95 VIM” value in [2] worked out at 0.78 µM. For the same compound, the “CL5741 S. marcescens MITC95 IMP” value in data set [3] was 1.56 µM. In data set [4], the “MB9798 MITC95 P. aeruginosa uM Efflux WT” value worked out at 0.78 µM. Further, in data set [4], the Efflux ratio is reported as 2.00. For the same compound, the “MB9799 MITC95 P. aeruginosa uM Efflux Mutant” value in [5] was 0.39 µM.
For the compound `NC[C@@H](O)CNS(=O)(=O)c1ccc(N2CCC(C3COC(=O)N3)CC2)c(-c2nn[nH]n2)c1S(N)(=O)=O` (stereo partly drawn) [Example 177, N1-((R)-3-amino-2-hydroxypropyl)-4-(4-(2-oxooxazolidin-4-yl)piperidin-1-yl)-3-(2H-tetrazol-5-yl)benzene-1,2-disulfonamide], the IC50 on NDM-1 was determined as 0.57 nM; on IMP-1, 0.19 nM; on VIM-1 it was 0.15 nM; at VIM-2, 0.66 nM. For the same compound, the “CLB30016 E. coli MITC95 NDM” value in data set [1] was found to be 6.25 µM. Moreover, the “IHMA599644 K. pneumoniae MITC95 VIM” value in data set [2] stood at 6.25 µM. In addition, the “CL5741 S. marcescens MITC95 IMP” value in data set [3] turned out to be 3.13 µM. In [4], the “MB9798 MITC95 P. aeruginosa uM Efflux WT” value amounted to 1.56 µM. Also, in data set [4], the Efflux ratio is recorded as 1.00. For the same compound, in data set [5], the “MB9799 MITC95 P. aeruginosa uM Efflux Mutant” value is 1.56 µM.
In the case of `NS(=O)(=O)c1c(S(=O)(=O)C2CNC2)ccc(N2CC[C@H](CO)[C@H](F)C2)c1-c1nnn[nH]1` [Example 61, 6-(azetidin-3-ylsulfonyl)-3-[(3S,4R)-3-fluoro-4-(hydroxymethyl)piperidin-1-yl]-2-(1H-tetrazol-5-yl)benzenesulfonamide], the half-maximal inhibitory concentration (IC50) at NDM-1 was found to be 0.9 nM; on IMP-1, 1.28 nM; on VIM-1 it was 0.44 nM; at VIM-2, 2.12 nM. Moreover, in [1], the “CLB30016 E. coli MITC95 NDM” value stood at 1.56 µM. Besides, in data set [2], the “IHMA599644 K. pneumoniae MITC95 VIM” value worked out at 6.25 µM. In addition, the “CL5741 S. marcescens MITC95 IMP” value in [3] worked out at 3.13 µM. Moreover, in data set [4], the “MB9798 MITC95 P. aeruginosa uM Efflux WT” value came out at 6.25 µM. The Efflux ratio in data set [4] turned out to be 4.00. Also, in data set [5], the “MB9799 MITC95 P. aeruginosa uM Efflux Mutant” value stood at 1.56 µM.
`NC[C@@H](O)CNS(=O)(=O)c1ccc(N2CCC(NCCO)CC2)c(-c2nn[nH]n2)c1S(N)(=O)=O` [Example 142, (R)-N1-(3-amino-2-hydroxypropyl)-4-(4-((2-hydroxyethyl)amino)piperidin-1-yl)-3-(2H-tetrazol-5-yl)benzene-1,2-disulfonamide bis(2,2,2-trifluoroacetate)]: the IC50 came to 7.59 nM against NDM-1, 5.95 nM at IMP-1, 0.42 nM at VIM-1 and 9.26 nM on VIM-2. For the same compound, in data set [1], the “CLB30016 E. coli MITC95 NDM” value is 0.39 µM. For the same compound, in data set [2], the “IHMA599644 K. pneumoniae MITC95 VIM” value was 1.56 µM. In data set [3], the “CL5741 S. marcescens MITC95 IMP” value worked out at 0.78 µM. Further, the “MB9798 MITC95 P. aeruginosa uM Efflux WT” value in [4] was 0.78 µM. In data set [4], the Efflux ratio turned out to be 1.00. In addition, the “MB9799 MITC95 P. aeruginosa uM Efflux Mutant” value in data set [5] was 0.78 µM.
For the compound `COC1(CO)CCN(c2ccc(S(=O)(=O)N[C@H](C)CN)c(S(N)(=O)=O)c2-c2nn[nH]n2)CC1` [Example 19, (R)-N1-(1-aminopropan-2-yl)-4-(4-(hydroxymethyl)-4-methoxypiperidin-1-yl)-3-(2H-tetrazol-5-yl)benzene-1,2-disulfonamide], the concentration for half-maximal inhibition (IC50) was 0.17 nM against NDM-1, 0.37 nM at IMP-1, 0.65 nM on VIM-1 and 2.27 nM at VIM-2. In data set [1], the “CLB30016 E. coli MITC95 NDM” value is 3.13 µM. The “IHMA599644 K. pneumoniae MITC95 VIM” value in data set [2] was found to be 12.50 µM. The “CL5741 S. marcescens MITC95 IMP” value in [3] worked out at 3.13 µM. Moreover, in data set [4], the “MB9798 MITC95 P. aeruginosa uM Efflux WT” value stood at 3.13 µM. In addition, the Efflux ratio in data set [4] was 1.00. Besides, the “MB9799 MITC95 P. aeruginosa uM Efflux Mutant” value in data set [5] stood at 3.13 µM.
In the case of `COC1(CN(C)C)CN(c2ccc(S(=O)(=O)N[C@@H]3CCNC3)c(S(N)(=O)=O)c2-c2nnn[nH]2)C1` [Example 116, 4-{3-[(dimethylamino)methyl]-3-methoxyazetidin-1-yl}-N1-[(3R)-pyrrolidin-3-yl]-3-(1H-tetrazol-5-yl)benzene-1,2-disulfonamide], the 50% inhibitory concentration (IC50) turned out to be 29.3 nM against NDM-1, 4.62 nM at IMP-1, 6.97 nM at VIM-1 and 63.9 nM at VIM-2. The “CLB30016 E. coli MITC95 NDM” value in data set [1] came to 1.56 µM. Besides, the “IHMA599644 K. pneumoniae MITC95 VIM” value in [2] is 3.13 µM. In addition, in [3], the “CL5741 S. marcescens MITC95 IMP” value was determined as 1.56 µM. The “MB9798 MITC95 P. aeruginosa uM Efflux WT” value in [4] is 3.13 µM. In data set [4], the Efflux ratio came out at 2.00. In addition, the “MB9799 MITC95 P. aeruginosa uM Efflux Mutant” value in data set [5] is 1.56 µM.
With `NS(=O)(=O)c1c(S(=O)(=O)N[C@@H]2CCNC2)ccc(N2CCC(CF)CC2)c1-c1nnn[nH]1` [Example 89, 4-[4-(fluoromethyl)piperidin-1-yl]-N1-[(3R)-pyrrolidin-3-yl]-3-(1H-tetrazol-5-yl)benzene-1,2-disulfonamide], the IC50 was determined as 0.21 nM against NDM-1, 0.61 nM at IMP-1, 0.21 nM on VIM-1 and 0.66 nM on VIM-2. The “CLB30016 E. coli MITC95 NDM” value in data set [1] is 1.56 µM. Besides, the “IHMA599644 K. pneumoniae MITC95 VIM” value in data set [2] came out at 12.50 µM. In addition, in [3], the “CL5741 S. marcescens MITC95 IMP” value turned out to be 3.13 µM. Also, the “MB9798 MITC95 P. aeruginosa uM Efflux WT” value in data set [4] worked out at 3.13 µM. Moreover, the Efflux ratio in data set [4] is given as 2.00. Besides, the “MB9799 MITC95 P. aeruginosa uM Efflux Mutant” value in [5] is 1.56 µM.
On to `NS(=O)(=O)c1c(S(=O)(=O)N[C@@H]2CCNC2)ccc(N2CCN(CCCO)CC2)c1-c1nnn[nH]1` [Example 93, 4-[4-(3-hydroxypropyl)piperazin-1-yl]-N1-[(3R)-pyrrolidin-3-yl]-3-(1H-tetrazol-5-yl)benzene-1,2-disulfonamide], for which the IC50 came out at 1.71 nM on NDM-1, 2.52 nM at IMP-1, 3.62 nM on VIM-1 and 6.73 nM on VIM-2. The “CLB30016 E. coli MITC95 NDM” value in [1] came out at 0.39 µM. For the same compound, the “IHMA599644 K. pneumoniae MITC95 VIM” value in [2] amounted to 1.56 µM. Besides, the “CL5741 S. marcescens MITC95 IMP” value in [3] came out at 0.20 µM. Also, the “MB9798 MITC95 P. aeruginosa uM Efflux WT” value in [4] amounted to 3.13 µM. Also, in data set [4], the Efflux ratio is given as 2.00. Also, the “MB9799 MITC95 P. aeruginosa uM Efflux Mutant” value in [5] was 1.56 µM.
As to `NCCC(=O)N1CCN(c2ccc(S(=O)(=O)NC[C@H](O)CN)c(S(N)(=O)=O)c2-c2nn[nH]n2)CC1` [Example 145, (R)—N1-(3-amino-2-hydroxypropyl)-4-(4-(3-aminopropanoyl)piperazin-1-yl)-3-(2H-tetrazol-5-yl)benzene-1,2-disulfonamide], the IC50 on NDM-1 came to 1.68 nM; at IMP-1 it was 4.7 nM; at VIM-1, 0.46 nM; on VIM-2 it was 8.32 nM. In addition, the “CLB30016 E. coli MITC95 NDM” value in data set [1] is 0.39 µM. The “IHMA599644 K. pneumoniae MITC95 VIM” value in data set [2] turned out to be 1.56 µM. Also, in data set [3], the “CL5741 S. marcescens MITC95 IMP” value stood at 0.78 µM. Moreover, the “MB9798 MITC95 P. aeruginosa uM Efflux WT” value in data set [4] came to 0.78 µM. Moreover, the Efflux ratio in data set [4] was determined as 1.00. The “MB9799 MITC95 P. aeruginosa uM Efflux Mutant” value in data set [5] was found to be 0.78 µM.
`NC[C@@H]1CCCN(c2ccc(S(=O)(=O)N[C@@H]3CCNC3)c(S(N)(=O)=O)c2-c2nnn[nH]2)C1` [Example 78, 4-[(3S)-3-(aminomethyl)piperidin-1-yl]-N1-[(3R)-pyrrolidin-3-yl]-3-(1H-tetrazol-5-yl)benzene-1,2-disulfonamide]: the IC50 on NDM-1 turned out to be 5.4 nM; at IMP-1, 35.4 nM; on VIM-1, 0.66 nM; at VIM-2, 3.01 nM. The “CLB30016 E. coli MITC95 NDM” value in data set [1] came to 0.39 µM. In data set [2], the “IHMA599644 K. pneumoniae MITC95 VIM” value was determined as 1.56 µM. Also, in [3], the “CL5741 S. marcescens MITC95 IMP” value is 1.56 µM. Besides, the “MB9798 MITC95 P. aeruginosa uM Efflux WT” value in data set [4] was 6.25 µM. The Efflux ratio in data set [4] is 8.00. The “MB9799 MITC95 P. aeruginosa uM Efflux Mutant” value in data set [5] was found to be 0.78 µM.
